In US8846746B2, “Pyrazole compound and pharmaceutical use thereof” (Japan Tobacco Inc., priority 2011, dated 2014):

target: human SGLT1 (Homo sapiens (Human), UniProt P13866); experiment: SGLT1 inhibitory activity: 14C-AMG uptake into CHO-K1 cell line stably expressing human SGLT1; assay type: cell-based; settings: 14C-AMG uptake, CHO-K1 cells stably expressing human SGLT1
Summary of the method: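 CHO-K1 cells stably expressing human SGLT1 were pre-incubated 20 min in Na(−) buffer (pH 7.4). Test compound in Na(+) buffer with BSA was added with ¹⁴C-AMG (8 kBq) plus unlabelled AMG (2 mM in the added solution) for 1 h at 37 °C.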

Sequence of human SGLT1 (P13866 whole entry): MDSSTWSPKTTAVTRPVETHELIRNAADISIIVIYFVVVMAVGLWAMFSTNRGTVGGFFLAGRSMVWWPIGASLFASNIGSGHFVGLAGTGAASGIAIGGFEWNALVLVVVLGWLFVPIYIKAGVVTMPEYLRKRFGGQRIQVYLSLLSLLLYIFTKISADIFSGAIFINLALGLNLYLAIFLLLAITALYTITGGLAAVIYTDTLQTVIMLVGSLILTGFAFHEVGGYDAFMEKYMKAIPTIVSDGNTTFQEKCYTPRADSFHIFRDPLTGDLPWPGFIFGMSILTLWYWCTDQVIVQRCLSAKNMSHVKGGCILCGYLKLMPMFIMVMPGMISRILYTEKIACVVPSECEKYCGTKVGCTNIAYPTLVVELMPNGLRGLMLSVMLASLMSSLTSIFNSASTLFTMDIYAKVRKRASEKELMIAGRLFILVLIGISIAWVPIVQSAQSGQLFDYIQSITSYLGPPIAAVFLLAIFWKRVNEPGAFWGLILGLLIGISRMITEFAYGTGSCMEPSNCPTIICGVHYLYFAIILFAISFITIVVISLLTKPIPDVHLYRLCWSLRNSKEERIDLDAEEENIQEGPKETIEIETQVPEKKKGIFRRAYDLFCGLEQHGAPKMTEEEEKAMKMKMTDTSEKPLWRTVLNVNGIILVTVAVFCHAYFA

Row | SMILES | IC50 [µM]
1 | COc1ccc(F)c(-n2nc(NC(=O)[C@@H]3CNC(=O)C3)cc2-c2cccc(CO[C@H](C)C(F)(F)F)c2)c1 [Example 523] | 0.00215
2 | COc1cc(F)cc(-n2nc(NC(=O)[C@@H]3CNC(=O)C3)cc2-c2cccc(OC(F)(F)F)c2)c1 [Example 524] | 0.027
3 | CCOc1cc(F)cc(-n2nc(NC(=O)[C@@H]3CNC(=O)C3)cc2-c2cccc(OC(F)(F)F)c2)c1 [Example 525] | 0.018
4 | CC(C)Oc1cc(F)cc(-n2nc(NC(=O)[C@@H]3CNC(=O)C3)cc2-c2cccc(OC(F)(F)F)c2)c1 [Example 526] | 0.0092
5 | COc1cc(F)cc(-n2nc(NC(=O)[C@@H]3CNC(=O)C3)cc2-c2cccc(COCC(F)(F)F)c2)c1 [Example 527] | 0.0085
6 | CCOc1cc(F)cc(-n2nc(NC(=O)[C@@H]3CNC(=O)C3)cc2-c2cccc(COCC(F)(F)F)c2)c1 [Example 528] | 0.0036
7 | CC(C)Oc1cc(F)cc(-n2nc(NC(=O)[C@@H]3CNC(=O)C3)cc2-c2cccc(COCC(F)(F)F)c2)c1 [Example 529] | 0.0023
8 | CC(C)(C)/C=C/c1cccc(-c2cc(NC(=O)[C@@H]3CNC(=O)C3)nn2-c2ccccc2)c1 [Example 531] | 0.03
9 | COc1cc(F)cc(-n2nc(NC(=O)[C@@H]3CNC(=O)C3)cc2-c2cccc(CO[C@H](C)C(F)(F)F)c2)c1 [Example 533] | 0.0021
10 | CCOc1cc(F)cc(-n2nc(NC(=O)[C@@H]3CNC(=O)C3)cc2-c2cccc(CO[C@H](C)C(F)(F)F)c2)c1 [Example 534] | 0.0018
11 | CC(C)Oc1cc(F)cc(-n2nc(NC(=O)[C@@H]3CNC(=O)C3)cc2-c2cccc(CO[C@H](C)C(F)(F)F)c2)c1 [Example 535] | 0.0028
12 | CC(C)(C)CS(=O)(=O)c1cccc(-c2cc(NC(=O)[C@@H]3CNC(=O)C3)nn2-c2ccccc2)c1 [Example 540] | 0.048
13 | CC(C)CSc1cccc(-c2cc(NC(=O)[C@@H]3CNC(=O)C3)nn2-c2ccccc2)c1 [Example 546] | 0.0057
14 | C[C@@H](OCc1cccc(-c2cc(NC(=O)[C@@H]3CCC(=O)N3)nn2-c2ccccc2)c1)C(F)(F)F [Example 547] | 0.043
15 | C[C@@H](OCc1cc(F)cc(-c2cc(NC(=O)[C@@H]3CCC(=O)N3)nn2-c2ccccc2)c1)C(F)(F)F [Example 555] | 0.024
16 | O=C1NC[C@@H](C(=O)Nc2cc(-c3cccc(COCC(F)(F)F)c3)n(-c3ccccc3)n2)N1 [Example 558] | 0.038
17 | C[C@H]1C(=O)NC[C@@H]1C(=O)Nc1cc(-c2cccc(COCC(F)(F)F)c2)n(-c2ccccc2)n1 [Example 559] | 0.0077

More lines, now with the values ahead:

Row | IC50 [µM] | SMILES
18 | 0.0055 | C[C@@H](OCc1cccc(-c2cc(NC(=O)[C@H]3CNC(=O)C3)nn2-c2ccccc2)c1)C(F)(F)F [Example 561]
19 | 0.013 | C[C@@H](OCc1cccc(-c2cc(NC(=O)[C@@H]3CNC(=O)N3)nn2-c2ccccc2)c1)C(F)(F)F [Example 562]
20 | 0.045 | C[C@@H]1C(=O)NC[C@H]1C(=O)Nc1cc(-c2cccc(CO[C@H](C)C(F)(F)F)c2)n(-c2ccccc2)n1 [Example 564]
21 | 0.011 | C[C@@H](OCc1cccc(-c2cc(NC(=O)C3CCC(=O)NC3)nn2-c2ccccc2)c1)C(F)(F)F (stereo partly shown) [Example 565]
22 | 0.014 | CC(C)(OCc1cc(F)cc(-c2cc(NC(=O)[C@@H]3CNC(=O)C3)nn2-c2ccccc2)c1)C(F)(F)F [Example 567]
23 | 0.0087 | C[C@@H](OCc1cc(F)cc(-c2cc(NC(=O)[C@H]3CNC(=O)N3)nn2-c2ccc(Cl)cc2)c1)C(F)(F)F [Example 570]
24 | 0.0093 | C[C@@H](OCc1cc(F)cc(-c2cc(NC(=O)[C@H]3CNC(=O)O3)nn2-c2ccc(Cl)cc2)c1)C(F)(F)F [Example 571]
25 | 0.0051 | C[C@@H](OCc1cc(F)cc(-c2cc(NC(=O)C3CCC(=O)NC3)nn2-c2ccc(Cl)cc2)c1)C(F)(F)F (stereo partly shown) [Example 572]
26 | 0.013 | O=C1C[C@H](C(=O)Nc2cc(-c3cc(F)cc(COC(C(F)(F)F)C(F)(F)F)c3)n(-c3ccc(F)cc3)n2)CN1 [Example 573]
27 | 0.017 | CC(C)(OCc1cccc(-c2cc(NC(=O)[C@@H]3CNC(=O)C3)nn2-c2ccc(F)cc2)c1)C(F)(F)F [Example 574]
28 | 0.012 | CC(C)(OCc1cccc(-c2cc(NC(=O)[C@@H]3CNC(=O)C3)nn2-c2ccc(Cl)cc2)c1)C(F)(F)F [Example 575]
29 | 0.019 | O=C1C[C@H](C(=O)Nc2cc(-c3cccc(COC(C(F)(F)F)C(F)(F)F)c3)n(-c3ccc(Cl)cc3)n2)CN1 [Example 576]
30 | 0.0067 | C[C@@H](OCc1cc(Cl)cc(-c2cc(NC(=O)[C@@H]3CNC(=O)C3)nn2-c2ccccc2F)c1)C(F)(F)F [Example 577]
31 | 0.0085 | C[C@@H](OCc1cc(Cl)cc(-c2cc(NC(=O)[C@@H]3CNC(=O)C3)nn2-c2cccc(F)c2)c1)C(F)(F)F [Example 578]
32 | 0.023 | O=C1C[C@H](C(=O)Nc2cc(-c3cc(Cl)cc(COC(C(F)(F)F)C(F)(F)F)c3)n(-c3ccccc3)n2)CN1 [Example 579]
33 | 0.0076 | CC(C)(OCc1cc(F)cc(-c2cc(NC(=O)[C@@H]3CNC(=O)C3)nn2-c2ccc(Cl)cc2)c1)C(F)(F)F [Example 580]
34 | 0.012 | CC(C)(OCc1cc(Cl)cc(-c2cc(NC(=O)[C@@H]3CNC(=O)C3)nn2-c2ccc(F)cc2)c1)C(F)(F)F [Example 581]
35 | 0.084 | C[C@@H](OCc1cc(Cl)cc(-c2cc(NC(=O)[C@@H]3CNC(=O)C3)nn2C2CCOCC2)c1)C(F)(F)F [Example 584]
36 | 0.013 | O=C1C[C@H](C(=O)Nc2cc(-c3cc(F)cc(COC(C(F)(F)F)C(F)(F)F)c3)n(-c3ccccc3)n2)CN1 [Example 585]
37 | 0.046 | O=C1C[C@H](C(=O)Nc2cc(-c3cc(Cl)cc(COCC(F)(F)F)c3)n(-c3ccccc3)n2)CN1 [Example 586]
38 | 0.04 | O=C1C[C@H](C(=O)Nc2cc(-c3cc(Cl)cc(COCC(F)(F)F)c3)n(-c3ccccc3F)n2)CN1 [Example 587]
39 | 0.04 | O=C1C[C@H](C(=O)Nc2cc(-c3cc(Cl)cc(COCC(F)(F)F)c3)n(-c3cccc(F)c3)n2)CN1 [Example 588]

same assay, conditions: CHO-K1, at 0.00265 uM

Row | inhibition at 0.00265 µM [%] | SMILES
40 | 57 | C[C@H]1C(=O)NC[C@@H]1C(=O)Nc1cc(-c2cccc(CO[C@H](C)C(F)(F)F)c2)n(-c2ccccc2)n1 [Example 563]

same assay, conditions: CHO-K1, at 0.1 uM

Row | SMILES | inhibition at 0.1 µM [%]
41 | CS(=O)(=O)c1cccc(-n2nc(NC(=O)[C@@H]3CNC(=O)C3)cc2-c2cccc(COCC(F)(F)F)c2)c1 [Example 530] | 40
42 | O=C1C[C@H](C(=O)Nc2cc(-c3cccc(C#CC4CC4)c3)n(-c3ccccc3)n2)CN1 [Example 532] | 26
43 | O=C1C[C@H](C(=O)Nc2cc(-c3cccc(CO[C@@H]4CCOC4)c3)n(-c3ccccc3)n2)CN1 [Example 536] | 15
44 | O=C1C[C@H](C(=O)Nc2cc(-c3cccc(CO[C@H]4CCOC4)c3)n(-c3ccccc3)n2)CN1 [Example 537] | 1
45 | O=C1C[C@H](C(=O)Nc2cc(-c3cccc(CO[C@@H]4CCCOC4)c3)n(-c3ccccc3)n2)CN1 [Example 538] | 33
46 | O=C1C[C@H](C(=O)Nc2cc(-c3cccc(CO[C@H]4CCCOC4)c3)n(-c3ccccc3)n2)CN1 [Example 539] | 35
47 | CCS(=O)(=O)Cc1cccc(-c2cc(NC(=O)[C@@H]3CNC(=O)C3)nn2-c2ccccc2)c1 [Example 541] | 24
48 | O=C1C[C@H](C(=O)Nc2cc(-c3cccc(COC4COC4)c3)n(-c3ccccc3)n2)CN1 [Example 542] | 18
49 | O=C1C[C@H](C(=O)Nc2cc(-c3cccc(COC4CCOCC4)c3)n(-c3ccccc3)n2)CN1 [Example 543] | 15
50 | C[C@@H](OCc1cc(-c2cc(NC(=O)[C@@H]3CNC(=O)C3)nn2-c2ccccc2)cc(C(F)(F)F)c1)C(F)(F)F [Example 544] | 21
51 | O=C1CC[C@H](C(=O)Nc2cc(-c3cccc(COCC(F)(F)F)c3)n(-c3ccccc3)n2)N1 [Example 548] | 3
52 | O=C1CC[C@@H](C(=O)Nc2cc(-c3cccc(COCC(F)(F)F)c3)n(-c3ccccc3)n2)N1 [Example 549] | 41
53 | O=C1C[C@H](C(=O)Nc2cc(-c3cccc(S(=O)(=O)CC(F)(F)F)c3)n(-c3ccccc3)n2)CN1 [Example 550] | 29
54 | O=C1C[C@H](C(=O)Nc2cc(-c3cccc(S(=O)(=O)CCC(F)(F)F)c3)n(-c3ccccc3)n2)CN1 [Example 551] | 42
55 | O=C1C[C@H](C(=O)Nc2cc(-c3cccc(CS(=O)(=O)CC(F)(F)F)c3)n(-c3ccccc3)n2)CN1 [Example 552] | 8
56 | CC(C)CS(=O)(=O)c1cccc(-c2cc(NC(=O)[C@@H]3CNC(=O)C3)nn2-c2ccccc2)c1 [Example 553] | 31
57 | C[C@@H](OCc1cc(F)cc(-c2cc(NC(=O)[C@H]3CCC(=O)N3)nn2-c2ccccc2)c1)C(F)(F)F [Example 554] | 32
58 | C[C@@H](OCc1cccc(-c2cc(NC(=O)[C@H]3CCC(=O)N3)nn2-c2ccccc2)c1)C(F)(F)F [Example 556] | 23
59 | C[C@@H](OCc1cc(-c2cc(NC(=O)[C@@H]3CNC(=O)C3)nn2-c2ccccc2)ccc1F)C(F)(F)F [Example 557] | 48

Results, then the compound that gave them:

Row | inhibition at 0.1 µM [%] | SMILES
60 | 29 | CC(C)(C)S(=O)(=O)c1cccc(-c2cc(NC(=O)[C@@H]3CNC(=O)C3)nn2-c2ccccc2)c1 [Example 569]
61 | 47 | C[C@@H](OCc1cccc(-c2cc(NC(=O)[C@@H]3CNC(=O)C3)nn2C2CCOCC2)c1)C(F)(F)F [Example 582]
62 | 48 | C[C@@H](OCc1cc(F)cc(-c2cc(NC(=O)[C@@H]3CNC(=O)C3)nn2C2CCOCC2)c1)C(F)(F)F [Example 583]

same assay, conditions: CHO-K1, at 0.3 uM

Row | inhibition at 0.3 µM [%] | SMILES
63 | 22 | CC(C)S(=O)(=O)Cc1cccc(-c2cc(NC(=O)[C@@H]3CNC(=O)C3)nn2-c2ccccc2)c1 [Example 566]
64 | 27 | CC(C)S(=O)(=O)c1cccc(-c2cc(NC(=O)[C@@H]3CNC(=O)C3)nn2-c2ccccc2)c1 [Example 568]
